“And” between values parts separate entries of the source, which are not always exact repeats. Identical values can stand only once. Inconclusive results and toxic doses are left out.
Tested on: L1210 leukemia ip in BDF1 mice, survival T/C
Assay: NCI In Vivo Anticancer Drug Screen. Data for tumor model L1210 Leukemia (intraperitoneal) in B6D2F1 (BDF1) mice
Details: endpoint: mean survival time, higher = longer survival
Method in brief: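 Value reflects the ratio of survival in compound-treated mice to survival in vehicle-treated controls, with both groups carrying the same transplanted tumor.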

[1] = dose: 100.0 mg/kg/injection, schedule: Q04DX003 (ip), vehicle: saline
[2] = dose: 200.0 mg/kg/injection, schedule: Q04DX003 (ip), vehicle: saline
[3] = dose: 400.0 mg/kg/injection, schedule: Q04DX003 (ip), vehicle: saline
[4] = dose: 100.0 mg/kg/injection, schedule: Q01DX001 (ip), vehicle: saline
[5] = dose: 200.0 mg/kg/injection, schedule: Q01DX001 (ip), vehicle: saline
[6] = dose: 400.0 mg/kg/injection, schedule: Q01DX001 (ip), vehicle: saline
[7] = dose: 50.0 mg/kg/injection, schedule: Q04DX003 (ip), vehicle: saline
[8] = dose: 100.0 mg/kg/injection, schedule: Q01DX001 (ip), vehicle: carboxymethylcellulose (CMC)
[9] = dose: 200.0 mg/kg/injection, schedule: Q01DX001 (ip), vehicle: carboxymethylcellulose (CMC)
[10] = dose: 400.0 mg/kg/injection, schedule: Q01DX001 (ip), vehicle: carboxymethylcellulose (CMC)
[11] = dose: 25.0 mg/kg/injection, schedule: Q04DX003 (ip), vehicle: saline
[12] = dose: 100.0 mg/kg/injection, schedule: Q01DX009 (ip), vehicle: saline with Tween-80
[13] = dose: 200.0 mg/kg/injection, schedule: Q01DX009 (ip), vehicle: saline with Tween-80
[14] = dose: 400.0 mg/kg/injection, schedule: Q01DX009 (ip), vehicle: saline with Tween-80
[15] = dose: 50.0 mg/kg/injection, schedule: Q01DX009 (ip), vehicle: saline with Tween-80
[16] = dose: 100.0 mg/kg/injection, schedule: Q04DX002 (ip), vehicle: saline with Tween-80
[17] = dose: 200.0 mg/kg/injection, schedule: Q04DX002 (ip), vehicle: saline with Tween-80
[18] = dose: 200.0 mg/kg/injection, schedule: Q04DX003 (ip), vehicle: saline with Tween-80

Compound: CN(C)CCOC(=O)C1C2CC3OC(=O)C1C3C2 (configuration not stated)
- T/C [1]: 96 % of control
- T/C [2]: 104 % of control
- T/C [3]: 104 % of control

Compound: CNC(=O)OCCO
- T/C [4]: 100 % of control
- T/C [5]: 101 % of control
- T/C [6]: 97 % of control

Compound: CC1(C)NC(=O)N(CCO)C1=O
- T/C [7]: 111 % of control
- T/C [1]: 111 % of control
- T/C [2]: 100 % of control
- T/C [3]: 101 % of control

Compound: CCOC(=O)CC(O)(c1ccc(OC)cc1)c1ccc(OC)cc1
- T/C [8]: 92 % of control
- T/C [9]: 97 % of control
- T/C [10]: 95 % of control

Compound: CC1=CC(=O)N(CO)C1=O
- T/C (dose: 25.0 mg/kg/injection, schedule: Q04DX003 (ip), vehicle: water): 94 % of control
- T/C (dose: 50.0 mg/kg/injection, schedule: Q04DX003 (ip), vehicle: water): 98 % of control

Compound: CC[CH2][Pb]([CH2]CC)([CH2]CC)[O]C(=O)CCl
- T/C (dose: 3.0 mg/kg/injection, schedule: Q01DX009 (ip), vehicle: Klucel (hydroxypropylcellulose) (HPC)): 106 % of control
- T/C (dose: 6.0 mg/kg/injection, schedule: Q01DX009 (ip), vehicle: Klucel (hydroxypropylcellulose) (HPC)): 101 % of control
- T/C (dose: 12.5 mg/kg/injection, schedule: Q01DX009 (ip), vehicle: Klucel (hydroxypropylcellulose) (HPC)): 96 % of control

Compound: Cc1c(S(=O)(=O)F)ccc(O)c1[N+](=O)[O-]
- T/C (dose: 100.0 mg/kg/injection, schedule: Q01DX009 (ip), vehicle: Klucel (hydroxypropylcellulose) (HPC)): 104 % of control
- T/C (dose: 200.0 mg/kg/injection, schedule: Q01DX009 (ip), vehicle: Klucel (hydroxypropylcellulose) (HPC)): 104 % of control
- T/C (dose: 400.0 mg/kg/injection, schedule: Q01DX009 (ip), vehicle: Klucel (hydroxypropylcellulose) (HPC)): 110 % of control

Compound: CCOC(=O)CC(SP(=S)(Oc1ccccc1)Oc1ccccc1)C(=O)OCC (configuration not stated)
- T/C (dose: 100.0 mg/kg/injection, schedule: Q04DX002 (sc), vehicle: olive oil, sesame oil, peanut oil): 100 % of control
- T/C (dose: 200.0 mg/kg/injection, schedule: Q04DX002 (sc), vehicle: olive oil, sesame oil, peanut oil): 103 % of control
- T/C (dose: 400.0 mg/kg/injection, schedule: Q04DX002 (sc), vehicle: olive oil, sesame oil, peanut oil): 93 % of control

Compound: Cc1ccc2c(ccc(/C=C/c3ccc(O)c4ccccc34)[n+]2C)c1
- T/C (dose: 75.0 mg/kg/injection, schedule: Q01DX001 (ip), vehicle: carboxymethylcellulose (CMC)): 95 % of control
- T/C (dose: 150.0 mg/kg/injection, schedule: Q01DX001 (ip), vehicle: carboxymethylcellulose (CMC)): 97 % of control
- T/C (dose: 300.0 mg/kg/injection, schedule: Q01DX001 (ip), vehicle: carboxymethylcellulose (CMC)): 96 % of control

Compound: O=C(Nc1ccc(C2=NCCN2)cc1)c1ccc(C(=O)Nc2ccc(C3=NCCN3)cc2)nc1
- T/C (dose: 1.0 mg/kg/injection, schedule: Q01DX Z (ip), vehicle: saline): 108 % of control
- T/C (dose: 2.0 mg/kg/injection, schedule: Q01DX Z (ip), vehicle: saline): 119 % of control
- T/C (dose: 15.0 mg/kg/injection, schedule: Q01DX Z (ip), vehicle: carboxymethylcellulose (CMC)): 228 % of control
- T/C (dose: 16.0 mg/kg/injection, schedule: Q01DX Z (ip), vehicle: saline): 221 % of control
- T/C (dose: 30.0 mg/kg/injection, schedule: Q01DX Z (oral), vehicle: saline): 104 % of control
- T/C (dose: 60.0 mg/kg/injection, schedule: Q01DX Z (ip), vehicle: carboxymethylcellulose (CMC)): 117 % of control
- T/C (dose: 60.0 mg/kg/injection, schedule: Q01DX Z (oral), vehicle: saline): 98 % of control
- T/C (dose: 120.0 mg/kg/injection, schedule: Q01DX Z (oral), vehicle: saline): 106 % of control
- T/C (dose: 240.0 mg/kg/injection, schedule: Q01DX Z (oral), vehicle: saline): 97 % of control
- T/C (dose: 480.0 mg/kg/injection, schedule: Q01DX Z (oral), vehicle: saline): 98 % of control
- T/C (dose: 960.0 mg/kg/injection, schedule: Q01DX Z (oral), vehicle: saline): 97 % of control

Compound: NNc1n[nH]c(=S)n1N
- T/C [11]: 90 % of control
- T/C [1]: 97 % of control

Compound: CC(=O)Nc1ccc(S(=O)(=O)Nc2ccc(C(=O)O)cc2)cc1
- T/C (dose: 100.0 mg/kg/injection, schedule: Q04DX003 (ip), vehicle: Klucel (hydroxypropylcellulose) (HPC)): 100 % of control
- T/C (dose: 200.0 mg/kg/injection, schedule: Q04DX003 (ip), vehicle: Klucel (hydroxypropylcellulose) (HPC)): 87 % of control
- T/C (dose: 400.0 mg/kg/injection, schedule: Q04DX003 (ip), vehicle: Klucel (hydroxypropylcellulose) (HPC)): 92 % of control

Compound: CC1/C(=N\O)CC2C3(C)CCC2(C(C)C(=O)O)C(=O)C13 (configuration not stated)
- T/C (dose: 100.0 mg/kg/injection, schedule: Q01DX001 (ip), vehicle: Klucel (hydroxypropylcellulose) (HPC)): 100 % of control
- T/C (dose: 200.0 mg/kg/injection, schedule: Q01DX001 (ip), vehicle: Klucel (hydroxypropylcellulose) (HPC)): 100 % of control
- T/C (dose: 400.0 mg/kg/injection, schedule: Q01DX001 (ip), vehicle: Klucel (hydroxypropylcellulose) (HPC)): 92 % of control

Compound: Cc1nc(N)[nH]c(=O)c1N=Nc1ccc(S(=O)(=O)O)cc1
- T/C (dose: 50.0 mg/kg/injection, schedule: Q01DX001 (ip), vehicle: saline): 98 % of control
- T/C [4]: 98 % of control
- T/C [5]: 104 % of control

Compound: C=CCSc1nc2c(N)ncnc2n1C1OC(CO)C(O)C1O (configuration not stated)
- T/C (dose: 100.0 mg/kg/injection, schedule: Q01DX005 (ip), vehicle: saline): 103 % of control
- T/C (dose: 200.0 mg/kg/injection, schedule: Q01DX005 (ip), vehicle: saline): 98 % of control

Compound: O=C(CC(NC(=O)OCc1ccccc1)c1nn[nH]n1)OCc1ccccc1 (configuration not stated)
- T/C [12]: 101 % of control
- T/C [13]: 103 % of control
- T/C [14]: 90 % of control

Compound: COc1cccc2c1CCC1=C2CC=C2CC3(CCC21C)OCCO3 (configuration not stated)
- T/C (dose: 100.0 mg/kg/injection, schedule: Q01DX009 (sc), vehicle: steriod suspending solution): 91 % of control
- T/C (dose: 200.0 mg/kg/injection, schedule: Q01DX009 (sc), vehicle: steriod suspending solution): 101 % of control
- T/C (dose: 400.0 mg/kg/injection, schedule: Q01DX009 (sc), vehicle: steriod suspending solution): 106 % of control

Compound: CC1COCC(C)N1CC(=O)Nc1ccc(S(=O)(=O)c2ccc(NC(=O)CN3C(C)COCC3C)cc2)cc1 (configuration not stated)
- T/C [8]: 107 % of control
- T/C [9]: 95 % of control
- T/C [10]: 95 % of control

Compound: O=C(O)/C=C\c1c[nH]c2nccnc12
- T/C (dose: 25.0 mg/kg/injection, schedule: Q01DX009 (ip), vehicle: saline): 101 % of control
- T/C [11]: 117 % of control
- T/C (dose: 50.0 mg/kg/injection, schedule: Q01DX009 (ip), vehicle: saline): 88 % of control
- T/C [7]: 115 % of control
- T/C [1]: 103 % of control and 106 % of control

Compound: Cc1c(Cl)cccc1NC(=O)Nc1cccc2c(O)cccc12
- T/C [15]: 92 % of control
- T/C (dose: 100.0 mg/kg/injection, schedule: Q01DX001 (ip), vehicle: saline with Tween-80): 89 % of control
- T/C [16]: 86 % of control and 89 % of control
- T/C (dose: 200.0 mg/kg/injection, schedule: Q01DX001 (ip), vehicle: saline with Tween-80): 90 % of control
- T/C [17]: 86 % of control and 91 % of control
- T/C [18]: 88 % of control
- T/C (dose: 400.0 mg/kg/injection, schedule: Q01DX001 (ip), vehicle: saline with Tween-80): 89 % of control
- T/C [14]: 94 % of control and 87 % of control
- T/C (dose: 400.0 mg/kg/injection, schedule: Q04DX002 (ip), vehicle: saline with Tween-80): 87 % of control and 89 % of control

Compound: O=C(NNc1cccc(Cl)c1)C(O)C(O)C(O)C(O)CO (configuration not stated)
- T/C [15]: 107 % of control
- T/C [12]: 98 % of control
- T/C [13]: 115 % of control

Compound: C=CC1(C)C=C2CCC3C(C)(C(=O)O)CCCC3(C)C2CC1 (configuration not stated)
- T/C [16]: 106 % of control
- T/C [17]: 95 % of control

Compound: Cc1c[n+]([O-])cc(C)c1N=Nc1ccc(N(C)C)cc1
- T/C (dose: 100.0 mg/kg/injection, schedule: Q04DX003 (ip), vehicle: saline with Tween-80): 103 % of control
- T/C [18]: 96 % of control

Compound: C[n+]1ccccc1/C=C/c1cccc([N+](=O)[O-])c1
- T/C (dose: 5.0 mg/kg/injection, schedule: Q04DX003 (ip), vehicle: saline with Tween-80): 101 % of control
- T/C (dose: 10.0 mg/kg/injection, schedule: Q04DX003 (ip), vehicle: saline with Tween-80): 90 % of control
- T/C (dose: 20.0 mg/kg/injection, schedule: Q04DX003 (ip), vehicle: saline with Tween-80): 100 % of control

Compound: CC(C)=NNc1cccc2cccc(N)c12
- T/C [4]: 97 % of control
- T/C [5]: 95 % of control
- T/C [6]: 97 % of control
